Laboratory results as given in patent publication US20240246992A1, “MACROCYCLIC LRRK2 KINASE INHIBITORS” (LES LABORATOIRES SERVIER, priority 2021, published 2024).

target: human recombinant LRRK2 protein (Homo sapiens, UniProt Q5S007); assay: LRRK2 kinase activity assay (ADP-Glo, LRRKtide peptide); assay type: biochemical; details: human recombinant LRRK2 wt, LRRKtide peptide and ATP, 1 h at 37° C.
Procedure: The inhibition of LRRK2 kinase was assessed using human recombinant LRRK2 protein in an in vitro peptide-based kinase assay.
LRRK2 Kinase reactions were carried out in 384-well white polystyrene plates in a final volume of 6 μl using ADP-Glo™ Kinase Assay kit (Promega Corp.). Compound and substrates (LRRKtide peptide and ATP) in assay buffer were first dispensed in wells. Kinase reaction was then started by the addition of human recombinant LRRK2 protein. After 1 h-incubation at 37° C., the enzymatic reactions was stopped by the addition of 6 μl of ADP-Glo Reagent-1 and an additional 40-minutes incubation at 23° C. (residual ATP depletion). A final 30-minutes incubation after 12 μL reagent-2 addition (ADP to ATP conversion and luciferin/luciferase reaction) was performed before luminescent signal acquisition (EnVision™ multimode plate reader—PerkinElmer, Inc.). Data from 10 individual concentrations of tested compounds (N=2) were fitted (XLfit™—ID Business Solutions Ltd) to deliver IC50s (compound concentration leading to 50% inhibition of reference enzymatic activity).
The compounds are dissolved to 5 mM in DMSO. When needed, solutions are sonicated in a bath sonicator.
Table 2 provides the pIC50 values of the compounds according to the invention, obtained using the above mentioned kinase assay. Activities are represented as +++, ++ and +, having the following meanings: • «+++» means an IC50<10 nM • «++» means an IC50<100 nM • «+» means an IC50<1 μM • «−» means an IC50>1 μM

Sequence of human recombinant LRRK2 protein (Q5S007 whole entry): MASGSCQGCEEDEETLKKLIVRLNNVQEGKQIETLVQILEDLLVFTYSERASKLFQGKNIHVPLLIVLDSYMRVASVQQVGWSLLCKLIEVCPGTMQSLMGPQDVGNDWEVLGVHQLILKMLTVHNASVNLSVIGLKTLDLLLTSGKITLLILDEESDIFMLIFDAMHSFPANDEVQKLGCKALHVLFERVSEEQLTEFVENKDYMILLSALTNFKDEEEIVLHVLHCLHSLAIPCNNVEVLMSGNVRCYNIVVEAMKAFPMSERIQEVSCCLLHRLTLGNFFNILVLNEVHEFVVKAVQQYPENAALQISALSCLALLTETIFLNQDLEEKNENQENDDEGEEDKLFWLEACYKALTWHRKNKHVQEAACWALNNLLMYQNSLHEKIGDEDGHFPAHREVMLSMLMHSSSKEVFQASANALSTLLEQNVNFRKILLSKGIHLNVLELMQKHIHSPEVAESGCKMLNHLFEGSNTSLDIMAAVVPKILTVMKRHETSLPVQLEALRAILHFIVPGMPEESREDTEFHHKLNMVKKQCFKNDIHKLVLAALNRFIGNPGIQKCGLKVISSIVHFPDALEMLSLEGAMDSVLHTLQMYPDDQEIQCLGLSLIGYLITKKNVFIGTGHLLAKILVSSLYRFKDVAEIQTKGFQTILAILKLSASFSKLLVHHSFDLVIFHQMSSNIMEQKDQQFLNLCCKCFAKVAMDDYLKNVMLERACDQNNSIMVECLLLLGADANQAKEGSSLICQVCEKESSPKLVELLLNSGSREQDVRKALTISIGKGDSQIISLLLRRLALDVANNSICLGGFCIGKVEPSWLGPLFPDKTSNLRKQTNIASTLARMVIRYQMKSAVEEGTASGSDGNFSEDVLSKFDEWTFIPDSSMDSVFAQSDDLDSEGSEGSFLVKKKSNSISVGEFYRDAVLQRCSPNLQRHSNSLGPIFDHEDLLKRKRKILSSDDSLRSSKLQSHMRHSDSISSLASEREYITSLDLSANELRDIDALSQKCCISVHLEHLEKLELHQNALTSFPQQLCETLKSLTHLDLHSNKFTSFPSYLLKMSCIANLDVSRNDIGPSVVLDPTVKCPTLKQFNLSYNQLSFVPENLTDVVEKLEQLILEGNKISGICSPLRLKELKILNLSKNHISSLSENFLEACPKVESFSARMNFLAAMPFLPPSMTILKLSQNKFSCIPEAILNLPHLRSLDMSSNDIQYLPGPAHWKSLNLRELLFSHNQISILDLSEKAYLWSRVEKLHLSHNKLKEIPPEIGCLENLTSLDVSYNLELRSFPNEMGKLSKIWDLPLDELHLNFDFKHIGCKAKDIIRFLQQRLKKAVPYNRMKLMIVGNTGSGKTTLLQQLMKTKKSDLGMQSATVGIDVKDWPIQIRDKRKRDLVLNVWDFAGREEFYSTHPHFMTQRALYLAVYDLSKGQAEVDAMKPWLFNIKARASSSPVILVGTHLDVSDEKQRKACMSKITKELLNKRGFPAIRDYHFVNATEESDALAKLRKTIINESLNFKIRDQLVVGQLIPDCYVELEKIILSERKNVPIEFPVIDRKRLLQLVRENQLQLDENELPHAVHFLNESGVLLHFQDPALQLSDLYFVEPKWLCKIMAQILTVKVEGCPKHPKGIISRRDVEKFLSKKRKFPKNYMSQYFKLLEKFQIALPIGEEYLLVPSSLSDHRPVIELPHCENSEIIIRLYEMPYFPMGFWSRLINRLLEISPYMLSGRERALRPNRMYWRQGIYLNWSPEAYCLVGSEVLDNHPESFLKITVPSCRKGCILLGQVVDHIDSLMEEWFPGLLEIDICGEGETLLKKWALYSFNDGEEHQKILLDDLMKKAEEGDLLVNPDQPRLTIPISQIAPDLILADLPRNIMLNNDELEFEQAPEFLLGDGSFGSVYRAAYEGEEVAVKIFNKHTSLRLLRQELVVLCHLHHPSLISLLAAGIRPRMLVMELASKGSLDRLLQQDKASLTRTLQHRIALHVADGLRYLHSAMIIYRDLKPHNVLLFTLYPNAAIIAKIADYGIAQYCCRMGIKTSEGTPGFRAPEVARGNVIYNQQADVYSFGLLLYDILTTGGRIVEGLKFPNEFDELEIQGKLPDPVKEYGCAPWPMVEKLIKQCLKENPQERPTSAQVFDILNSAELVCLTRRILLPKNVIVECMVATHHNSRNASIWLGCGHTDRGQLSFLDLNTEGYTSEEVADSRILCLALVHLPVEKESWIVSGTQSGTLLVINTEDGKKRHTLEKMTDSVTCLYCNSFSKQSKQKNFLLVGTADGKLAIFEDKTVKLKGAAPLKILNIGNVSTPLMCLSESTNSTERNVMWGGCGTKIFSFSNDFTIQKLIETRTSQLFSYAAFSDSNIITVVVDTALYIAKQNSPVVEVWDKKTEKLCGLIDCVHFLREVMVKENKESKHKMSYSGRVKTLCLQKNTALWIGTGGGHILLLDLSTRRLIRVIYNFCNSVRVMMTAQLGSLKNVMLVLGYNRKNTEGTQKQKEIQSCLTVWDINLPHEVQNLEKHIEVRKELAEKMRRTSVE

Row | Structure (SMILES) | IC50
1 | C[C@H]1CCOC[C@H](C)Oc2nccc(n2)-c2n[nH]c3ccc(cc23)O1 [Example 46, (8S,13S)-8,13-dimethyl-7,10,14-trioxa-5,19,20,23-tetraazatetracyclo [13.5.2.1^2,6.0^18,21]tricosa-1(20),2(23),3,5,15(22),16,18(21)-heptaene] | < 100 nM
2 | C[C@H]1CCOC[C@H](C)Oc2cncc(n2)-c2n[nH]c3ccc(cc23)O1 [Example 47, (8S,13S)-8,13-dimethyl-7,10,14-trioxa-4,19,20,23-tetraazatetracyclo[13.5.2.1^2,6.0^18,21]tricosa-1(20),2(23),3,5,15(22),16,18(21)-heptaene] | < 100 nM
3 | C[C@H]1COc2cncc(n2)-c2n[nH]c3ccc(cc23)O[C@@H](C)CCO1 [Example 51, (9S,13S)-9,13-dimethyl-7,10,14-trioxa-4,19,20,23-tetraazatetracyclo[13.5.2.1^2,6.0^18,21]tricosa-1(20),2(23),3,5,15(22),16,18(21)-heptaene] | < 100 nM
4 | C[C@H]1CCOCCCn2cnc(c2)-c2n[nH]c3ccc(cc23)O1 [Example 57, (12S)-12-methyl-9,13-dioxa-3,5,18,19-tetraazatetracyclo [12.5.2.1^2,5.0^17,20] docosa-1(19),2(22),3,14(21),15,17(20)-hexaene] | < 1000 nM
5 | C[C@@H]1COc2cncc(n2)-c2n[nH]c3ccc(cc23)O[C@@H](C)CCO1 [Example 58, (9R,13S)-9,13-dimethyl-7,10,14-trioxa-4,19,20,23-tetraazatetracyclo[13.5.2.1^2,6.0^18,21]tricosa-1(20),2(23),3,5,15(22),16,18(21)-heptaene] | < 100 nM
6 | C[C@H]1COc2nccc(n2)-c2n[nH]c3ccc(cc23)O[C@@H](C)CCO1 [Example 59, (9S,13S)-9,13-dimethyl-7,10,14-trioxa-5,19,20,23-tetraazatetracyclo [13.5.2.1^2,6.0^18,21]tricosa-1(20),2(23),3,5,15(22),16,18(21)-heptaene] | < 100 nM
7 | C[C@@H]1COCCOc2ccc3[nH]nc(c3c2)-c2cnn(c2)CCO1 [Example 60, (9R)-9-methyl-8,11,14-trioxa-4,5,19,20-tetraazatetracyclo[13.5.2.1^2,5.0^18,21] tricosa-1(20),2(23),3,15(22),16,18(21)-hexaene] | < 100 nM
8 | C[C@H]1COCCOc2ccc3[nH]nc(c3c2)-c2cnn(c2)CCO1 [Example 61, (9S)-9-methyl-8,11,14-trioxa-4,5,19,20-tetraazatetracyclo[13.5.2.1^2,5.0^18,21] tricosa-1(20),2(23),3,15(22),16,18(21)-hexaene] | < 100 nM
9 | C[C@H]1CCOCCOCc2nc(cs2)-c2n[nH]c3ccc(cc23)O1 [Example 62, (13S)-13-methyl-7,10,14-trioxa-4-thia-19,20,23-triazatetracyclo[13.5.2.1^2,5.0^18,21]tricosa-1(20),2,5(23),15(22),16,18(21)-hexaene] | < 100 nM
10 | C[C@@H]1COCCOCCOc2ccc3[nH]nc(c3c2)-c2cnn1c2 [Example 65, (6R)-6-methyl-8,11,14-trioxa-4,5,19,20-tetraazatetracyclo[13.5.2.1^2,5.0^18,21] tricosa-1(20),2(23),3,15(22),16,18(21)-hexaene] | < 10 nM
11 | C[C@H]1CCOCCOCC2=NC=C(S2)c2n[nH]c3ccc(cc23)O1 [Example 66, (13S)-13-methyl-7,10,14-trioxa-23-thia-4,19,20-triazatetracyclo[13.5.2.1^2,5.0^18,21]tricosa-1(20),2,4,15(22),16,18(21)-hexaene] | < 10 nM
12 | C[C@@H]1COc2ccc3[nH]nc(c3c2)-c2cnn(c2)CCOCCO1 [Example 67, (12R)-12-methyl-8,11,14-trioxa-4,5,19,20-tetraazatetracyclo[13.5.2.1^2,5.0^18,21]tricosa-1(20),2(23),3,15(22),16,18(21)-hexaene] | < 10 nM

Results, then the compound that gave them:

Row | IC50 | Structure (SMILES)
13 | < 10 nM | C[C@H]1CCOCCOc2nc(cc(N3CCCC3)n2)-c2n[nH]c3ccc(cc23)N1 [Example 39, (13S)-13-methyl-4-(pyrrolidin-1-yl)-7,10-dioxa-5,14,19,20,23-pentaazatetra cyclo[13.5.2.1^2,6.0^18,21]tricosa-1(20),2(23),3,5,15(22),16,18(21)-heptaene]
14 | < 10 nM | Cc1cc2nc(n1)OCCOCC[C@H](C)Nc1ccc3[nH]nc-2c3c1 [Example 40, (13S)-4,13-dimethyl-7,10-dioxa-5,14,19,20,23-pentaazatetracyclo[13.5.2.1^2,6.0^18,21]tricosa-1(20),2(23),3,5,15(22),16,18(21)-heptaene]
15 | < 10 nM | C[C@@H]1CCOCCOc2cncc(n2)-c2n[nH]c3ccc(cc23)O1 [Example 41, (13R)-13-methyl-7,10,14-trioxa-4,19,20,23-tetraazatetracyclo[13.5.2.1^2,6.0^18,21]tricosa-1(20),2(23),3,5,15(22),16,18(21)-heptaene]
16 | < 10 nM | C[C@@H]1CCOCCCn2cc(cn2)-c2n[nH]c3ccc(cc23)O1 [Example 42, (12R)-12-methyl-9,13-dioxa-4,5,18,19-tetraazatetracyclo [12.5.2.1^2,5.0^17,20]docosa-1(19),2(22),3,14(21),15,17(20)-hexaene]
17 | < 10 nM | C[C@H]1CCOCCCc2cccc(c2)-c2n[nH]c3ccc(cc23)O1 [Example 43, (13S)-13-methyl-10,14-dioxa-19,20-diazatetracyclo[13.5.2.1^2,6.0^18,21]tricosa-1(20),2(23),3,5,15(22),16,18(21)-heptaene]
18 | < 10 nM | COC1CN(c2cc3nc(n2)O[C@H](C)COCC[C@H](C)Oc2ccc4[nH]nc-3c4c2)C1 [Example 44, (8R,13S)-4-(3-methoxyazetidin-1-yl)-8,13-dimethyl-7,10,14-trioxa-5,19,20, 23-tetraazatetracyclo[13.5.2.1^2,6.0^18,21]tricosa-1(20),2(23),3,5,15(22),16, 18(21)-heptaene]
19 | < 10 nM | C[C@@H]1CCOCCOc2nccc(n2)-c2n[nH]c3ccc(cc23)O1 [Example 45, (13R)-13-methyl-7,10,14-trioxa-5,19,20,23-tetraazatetracyclo[13.5.2.1^2,6.0^18,21]tricosa-1(20),2(23),3,5, 15(22),16,18(21)-heptaene]
20 | < 10 nM | C[C@H]1CCOCCCc2csc(n2)-c2n[nH]c3ccc(cc23)O1 [Example 48, (12S)-12-methyl-9,13-dioxa-3-thia-18,19,22-triazatetracyclo[12.5.2.1^2,5.0^17,20]docosa-1(19),2(22),4,14(21),15,17(20)-hexaene]
21 | < 10 nM | CO[C@@H]1CCN(c2cc3nc(n2)O[C@H](C)COCC[C@H](C)Oc2ccc4[nH]nc-3c4c2)C1 [Example 49, (8R,13S)-4-[(3R)-3-methoxypyrrolidin-1-yl]-8,13-dimethyl-7,10,14-trioxa-5,19,20,23-tetraazatetracyclo[13.5.2.1^2,6.0^18,21]tricosa-1(20),2(23),3,5, 15(22),16,18(21)-heptaene]
22 | < 10 nM | C[C@@H]1COCCOCCn2cc(cn2)-c2n[nH]c3ccc(cc23)O1 [Example 50, (13R)-13-methyl-8,11,14-trioxa-4,5,19,20-tetraazatetracyclo[13.5.2.1^2,5.0^18,21]tricosa-1(20),2(23),3,15(22),16,18(21)-hexaene]
23 | < 10 nM | C[C@H]1COCC[C@H](C)Oc2ccc3[nH]nc(c3c2)-c2cnn(c2)C1 [Example 52, (7R,12S)-7,12-dimethyl-9,13-dioxa-4,5,18,19-tetraazatetracyclo[12.5.2.1^2,5.0^17,20]docosa-1(19),2(22),3,14(21),15,17(20)-hexaene]
24 | < 10 nM | C[C@@H]1CCOC[C@H](C)Oc2ccc3[nH]nc(c3c2)-c2ccnc(n2)O1 [Example 53, (8R,13S)-8,13-dimethyl-7,11,14-trioxa-5,19,20,23-tetraazatetracyclo[13.5.2.1^2,6.0^18,21]tricosa-1(20),2(23),3,5,15(22),16,18(21)-heptaene]
25 | < 10 nM | C[C@H]1COc2ccc3[nH]nc(c3c2)-c2cnn(c2)CCOCCO1 [Example 54, (12S)-12-methyl-8,11,14-trioxa-4,5,19,20-tetraazatetracyclo[13.5.2.1^2,5.0^18,21]tricosa-1(20),2(23),3,15(22),16,18(21)-hexaene]
26 | < 10 nM | C[C@@H]1COCCCOc2ccc3[nH]nc(c3c2)-c2ccnc(n2)O1 [Example 55, (8R)-8-methyl-7,10,14-trioxa-5,19,20,23-tetraazatetracyclo[13.5.2.1^2,6.0^18,21] tricosa-1(20),2(23),3,5,15(22),16,18(21)heptaene]
27 | < 10 nM | C[C@@H]1CCOCCOc2cccc(n2)-c2n[nH]c3ccc(cc23)O1 [Example 56, (13R)-13-methyl-7,10,14-trioxa-19,20,23-triazatetracyclo[13.5.2.1^2,6.0^18,21] tricosa-1(20),2(23),3,5,15(22),16,18(21)-heptaene]
28 | < 10 nM | c1cc2[nH]nc3c2cc1OCCOCCOCCn1cc-3cn1 [Example 63, 8,11,14-trioxa-4,5,19,20-tetraazatetracyclo[13.5.2.1^2,5.0^18,21]tricosa-1(20), 2(23),3,15(22),16,18(21)-hexaene]
29 | < 10 nM | C[C@H]1COCCOCCOc2ccc3[nH]nc(c3c2)-c2cnn1c2 [Example 64, (6S)-6-methyl-8,11,14-trioxa-4,5,19,20-tetraazatetra cyclo[13.5.2.1^2,5.0^18,21]tricosa-1(20),2(23),3,15(22),16,18(21)-hexaene]
